Read-outs that look alike come from different tables or passages of the source.
Test system: DMS79 cells
Assay: In vitro growth inhibition and isobologram analysis (CellTiter Glo): DMS79
Type: cell-based, human
Settings: 5 days, read-out: IC50 (growth), DMS79, alone
Protocol: SCLC cells were seeded onto 96 well plates at 3000-5,000 cells/well on the day of treatment. To distinguish synergy from additivity of the combination of LY6H-PBD with Olaparib (selleckchem, Cat #S1060), etoposide (Cell Signaling Technology, Cat #2200S) or cisplatin (Sigma, Cat #P4394), for each combination, a specific isobologram was constructed. […] Concentrations ranging from 0.0001-10 ug/ml were used for 12G7-PBD, from 0.0001 to 100 uM for olaparib, cisplatin, and etoposide. Cell viability was measured 5 days later by CellTiter Glo® Luminescent Cell viability Assay™ (Promega, Madison, WI) according to manufacturer's instructions. Each IC50 was graphically derived from the growth curve graphed by Prism™ showing percent survival vs log drug concentrations.
The 50% growth-inhibitory activity of the drug combinations was measured after 5 days of treatment. The line of additivity for the isobologram was constructed by interpolating the two points corresponding to the IC50 of the two drugs alone. Graphically, synergy, additivity, and antagonism are indicated by a point plotted below, on, or above the line of additivity, respectively.

Compound `N.N.[Cl][Pt][Cl]` [cisplatin] has an IC50 of 310 nM.
In the case of `COc1cc([C@@H]2c3cc4c(cc3[C@@H](O[C@@H]3O[C@@H]5CO[C@@H](C)O[C@H]5[C@H](O)[C@H]3O)[C@H]3COC(=O)[C@H]23)OCO4)cc(OC)c1O` [etoposide], the IC50 (Homo sapiens, DMS-79, 120 h) is reported as 290 nM.
`O=C(c1cc(Cc2n[nH]c(=O)c3ccccc23)ccc1F)N1CCN(C(=O)C2CC2)CC1` [olaparib] was tested, and the IC50 (Homo sapiens, DMS-79, 120 h) was 4070 nM.

Source: US12296006B2, “Anti-LY6H antibodies and antibody drug conjugates” (Bluefin BioMedicine, Inc., priority 2017, dated 2025)
